Test results as given in patent US20250099622A1, “COMPOSITIONS AND METHODS FOR EXPRESSING THERAPEUTICS” (priority 2022, published 2025).
Entries after “also recorded” stand apart in the source; their conditions may differ.

Assays:
[1] = system: apoptosing retinal cells (RGC apoptosis); test: Rat pONT model: DARC imaging of RGC apoptosis; type: in vivo, rat (Dark Agouti)
Experimental: (§1) Using an experimental rat model of partial optic nerve transection (pONT), effects of Adeno-associated virus (AAV) CNP peptide (AAV-P) and protein Fc fusion (AAV-FP) on: retinal ganglion cell (RGC) apoptosis/stress in vivo was assessed using detection of apoptosing retinal cells (DARC) imaging; intraocular inflammation in vivo using Optical Coherence Tomography (OCT) imaging; intraocular pressure (IOP) in vivo using Tonolab tonometry; RGC survival histologically using immunohistochemistry on retinal whole mounts; and retinal microglial activity histologically using immunohistochemistry on retinal whole mounts.
(§2) In total, seventy-two male Dark Agouti (DA) rats aged 8-10 weeks were used in this study. The seventy-two animals were randomly divided into 3 categories.
(§3) Intravitreal injections (IVT, 4 μL) were given under general anesthesia (GA), according to the categories, and administered to the left eye (pONT eye) only once using a 34-gauge Hamilton needle at day 0 after BL imaging. pONT was performed at week 3 in Categories 1 and 2. In Category 3, pONT was performed soon after baseline imaging.
Partial optic nerve transection (pONT) surgery was performed under GA at week 3 in categories 1 and 2. In category 3, pONT surgery was performed on day 0 after BL imaging. […]
DARC/OCT. under GA, DARC/OCT imaging was conducted at baseline (BL), weeks 1, 2, and 4 in categories 1 and 2. pONT was performed at week 3. […] Briefly, fluorescently labelled annexin 776 (6 mg/mL, 40 μL) was […] administrated 2 hours before DARC imaging and then assessed with a confocal scanning laser ophthalmoscope (cSLO). […]
IOP measurements were performed three times a week at weeks 1, 2, and 4. DARC spots on in vivo images were automatically counted by an algorithm developed and validated in the Cordeiro lab. […] RBPMS^+ RGCs in retinal whole mounts were automatically counted and analyzed by a recently developed and validated algorithm in the Cordeiro lab. […] The morphology of microglia in retinal whole mounts was automatically analyzed by a recently developed and validated machine learning approach in the Cordeiro lab. […]

[2] = Rat pONT model: ELISA of Fc4-CNP36 / CNP36 in ocular homogenate and serum; conditions: after IVT of FP protein, terminal samples; FIG. 18
Experimental: Make a mixture of RIPA and the protease inhibitor was prepared by adding one tablet of protease inhibitor in 10 mL of RIPA buffer. Ocular tissue was measured for the amount of buffer needed. For every 1 mg of tissue, 10 μL of buffer was added. The tube containing the tissue was sonicated for 20 seconds on ice followed by 20 seconds of rest on ice. The sonication and chilling on ice was repeated two more times making 3 cycles in total.
After complete homogenization, the tubes were placed on an orbital shaker in cold room for two hours. After two hours, the tubes were centrifuged for five minutes at 13,000 rpm. The supernatants were collected and stored store at −80° C.
Animals were culled at week 4 in categories 1 and 2, and at week 1 in category 3. Before culling, a blood sample (at least 2 mL) was collected by cardiac puncture under the terminal procedure, centrifuged to collect serum, and stored at −80° C.
The remaining three blocks (blocks 4-6) of animals from each category (36 rats in total) were used for protein analysis. After culling, both eyes from each animal were enucleated and snap-frozen with liquid nitrogen, cryogenically homogenized with mortar and pestle and stored at −80° C. until protein analysis.
A serial dilution of CNP-Fc can be used in the assay. The detection range of CNP-Fc concentration in this assay can be from 0.78 to 50 ng/mL. […]

[3] = system: retinal ganglion cells (RGC); test: Rat pONT model: RGC survival, RBPMS+ RGCs in retinal whole mounts; type: in vivo, rat (Dark Agouti)
[4] = system: intraocular pressure (IOP); test: Rat partial optic nerve transection (pONT) model: intraocular pressure (Tonolab tonometry); type: in vivo, rat (Dark Agouti)
Experimental: as §1, §2, §3
Partial optic nerve transection (pONT) surgery was performed under GA at week 3 in categories 1 and 2. […]
IOP. […] Ten IOP readings were collected from each eye of each animal at each time point.
IOP measurements were performed three times a week at weeks 1, 2, and 4. DARC spots on in vivo images were automatically counted by an algorithm developed and validated in the Cordeiro lab. […] RBPMS^+ RGCs in retinal whole mounts were automatically counted and analyzed by a recently developed and validated algorithm in the Cordeiro lab. […] The morphology of microglia in retinal whole mounts was automatically analyzed by a recently developed and validated machine learning approach in the Cordeiro lab.
IOP analysis in the both Fc4-CNP36 (FP) and AAV treatment. […] The IOP data was analyzed by subtracting OD (the right eye) from OS (the left eye) in each animal at each time point. […] FIG. 16A illustrates animal IOP monitored during the course of the study. […]

[5] = system: NIH3T3 cells (cGMP secreted); test: EC50 for CNP-Fc constructs, cGMP ELISA of NIH3T3 supernatant; type: cell-based; conditions: NIH3T3, 30 minutes, 1.8 mM IBMX, cGMP secreted by the cells; FIG. 25B
Experimental: EC50 for CNP-Fc described herein were measured by ELISA. 2.5E+05 NIH3T3 cells/well were plated. […] After 30 minutes, supernatant was collected for cGMP determined via ELISA. FIG. 25A illustrates a standard curve of cGMP.

AMI263: purified fusion protein Fc4-(G4S)4-CNP36 (IgG4 Fc), SEQ ID NO: 135
p, DARC count FP (High) versus AAV-Negative ([1]; 80 μg/eye IVT): 0.0078 | DARC count, FP conditions ([1]; FP 2, 20, 80 μg/eye IVT, baseline subtracted, listed as FP): lowest DARC count; also recorded: dose-dependent effect | DARC count at highest FP dose ([1]; FP (H) = 80 μg/eye IVT, listed as FP): complete inhibition of DARC formation; also recorded: significant reduction compared to Sham control | FP4-CNP36 levels in treated eyes (OS) [2]: correlated to the dose amount | RGC counts versus FP dose ([3]; FP 2, 20, 80 μg/eye IVT, FIG. 17B): increased with dose increase | RGC counts in eyes after treatment ([3]; summary): RGC counts increased | effect on IOP ([4]; IVT 2, 20 and 80 μg/eye of affinity purified FP): significant effect on IOP reduction | dose at which IOP reduction reached maximal ([4]; IVT, range 2-80 μg/eye): 2 μg/eye | p, reduction in the IOP ([4]; all FP concentrations (2, 20, 80 μg/eye IVT), Day 1 compared to baseline (Day 0) or Day 7 after pONT): < 0.01 | EC50 values (rank order) [5]: CNP-22 ≡Fc4-CNP36>Aflibercept-Fc4-CNP36>Fc1-CNP36>>Fc4-CNP22
